Test results reported in patent US20220162191A1, “SMALL MOLECULE MODULATORS OF IL-17” (LEO PHARMA A/S, priority 2019, published 2022).

These compounds were tested against T1, human IL-17AA (Homo sapiens, UniProt Q16552) (assay: IL-8 release assay in human epithelial keratinocytes adult (HEKa)). Details: 3 ng/ml human IL-17AA + 10 ng/ml human TNFalpha, 68-72 h, IL-8 by HTRF, read-out: Rel EC50 L-8 release assay.
T1 construct: host or cells: HEK (human embryonic kidney) cells
T1 sequence (Q16552 24-155) 1: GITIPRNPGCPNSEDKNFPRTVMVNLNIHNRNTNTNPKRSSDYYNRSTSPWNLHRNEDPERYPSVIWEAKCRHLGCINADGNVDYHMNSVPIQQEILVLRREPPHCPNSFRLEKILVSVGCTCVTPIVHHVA
T1 sequence (Q16552 24-155) 2: T1 sequence (Q16552 24-155) 1
Type: cell-based
In short: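 IL-8 secretion, quantified by HTRF (665/620 nm) as percent of controls, served as the readout after 68–72 h culture of HEKa cells with compound plus IL-17AA (3 ng/ml final) and TNF-alpha (10 ng/ml final). Four-parameter logistic curves gave relative IC50 and Emax.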
Compound `CC(C)n1cc(-c2ccc3c(c2)[C@H]([C@H](NC(=O)c2ccnn2C)C(=O)Nc2ccc(-c4cncn4C)cc2)CCC3)ccc1=O` [Example 44, N-[(1S)-1-[(1R)-7-(1-isopropyl-6-oxo-3-pyridyl)tetralin-1-yl]-2-[4-(3-methylimidazol-4-yl)anilino]-2-oxo-ethyl]-2-methyl-pyrazole-3-carboxamide] has an EC50 of 100 to 1000 nM.
For `CC(C)n1cc(-c2ccc3c(c2)[C@@H]([C@@H](NC(=O)OC(C)(C)C)C(=O)Nc2ccc(-c4cncn4C)cc2)CCC3)ccc1=O` [Example 45, tert-butyl N-[(1R)-1-[(1S)-7-(1-isopropyl-6-oxo-3-pyridyl)tetralin-1-yl]-2-[4-(3-methylimidazol-4-yl)anilino]-2-oxo-ethyl]carbamate], the EC50 was 100 to 1000 nM.
With `Cc1n[nH]c(C)c1-c1ccc(NC(=O)[C@@H](NC(=O)c2ccnn2C)[C@@H]2CCCc3ccc(-c4ccc(=O)n(C(C)C)c4)cc32)cc1O` [Example 46, N-[(1S)-2-[4-(3,5-dimethyl-1H-pyrazol-4-yl)-3-hydroxy-anilino]-1-[(1R)-7-(1-isopropyl-6-oxo-3-pyridyl)tetralin-1-yl]-2-oxo-ethyl]-2-methyl-pyrazole-3-carboxamide] the EC50 was < 100 nM.
For `Cc1n[nH]c(C)c1-c1ccc(NC(=O)[C@@H](NC(=O)C2(F)CC2)[C@@H]2CCCc3ccc(-c4ccc(=O)n(C(C)C)c4)cc32)cc1O` [Example 47, N-[(1S)-2-[4-(3,5-dimethyl-1H-pyrazol-4-yl)-3-hydroxy-anilino]-1-[(1R)-7-(1-isopropyl-6-oxo-3-pyridyl)tetralin-1-yl]-2-oxo-ethyl]-1-fluoro-cyclopropanecarboxamide], the EC50 was < 100 nM.
`CC(C)n1cc(-c2ccc3c(c2)[C@@H]([C@@H](NC(=O)c2ccnn2C)C(=O)Nc2ccc(-c4cncn4C)cc2)CCC3)ccc1=O` [Example 48, N-[(1R)-1-[(1S)-7-(1-isopropyl-6-oxo-3-pyridyl)tetralin-1-yl]-2-[4-(3-methylimidazol-4-yl)anilino]-2-oxo-ethyl]-2-methyl-pyrazole-3-carboxamide] was tested, and the EC50 was > 1000 nM.
With `CC(C)n1cc(-c2ccc3c(c2)[C@H]([C@H](NC(=O)c2ccnn2C)C(=O)Nc2ccc(-c4cncn4C)c(O)c2)CCC3)ccc1=O` [Example 49, N-[(1S)-2-[3-hydroxy-4-(3-methylimidazol-4-yl)anilino]-1-[(1R)-7-(1-isopropyl-6-oxo-3-pyridyl)tetralin-1-yl]-2-oxo-ethyl]-2-methyl-pyrazole-3-carboxamide] the EC50 was < 100 nM.
`Cc1ncn(C)c1-c1ccc(NC(=O)[C@@H](NC(=O)c2ccnn2C)[C@@H]2CCCc3ccc(-c4cccc(C(C)(C)N)c4)cc32)cc1` [Example 50, N-[(1S)-1-[(1R)-7-[3-(1-amino-1-methyl-ethyl)phenyl]tetralin-1-yl]-2-[4-(3,5-dimethylimidazol-4-yl)anilino]-2-oxo-ethyl]-2-methyl-pyrazole-3-carboxamide] was tested, and the EC50 was 100 to 1000 nM.
`Cc1n[nH]c(C)c1-c1ccc(NC(=O)[C@@H](NC(=O)C2(F)CC2)C(C)c2cc(-c3ccc(=O)n(C(C)C)c3)ccc2Cl)cc1` (stereo partly drawn) [Example 51, N-[(1S)-2-[2-chloro-5-(1-isopropyl-6-oxo-3-pyridyl)phenyl]-1-[[4-(3,5-dimethyl-1H-pyrazol-4-yl)phenyl]carbamoyl]propyl]-1-fluoro-cyclopropanecarboxamide] showed an EC50 of 100 to 1000 nM.
With `Cc1ncn(C)c1-c1ccc(NC(=O)[C@@H](NC(=O)C2(F)CC2)C(C)c2cc(-c3ccc(=O)n(C(C)C)c3)ccc2Cl)cc1` (stereo partly drawn) [Example 52, N-[(1S)-2-[2-chloro-5-(1-isopropyl-6-oxo-3-pyridyl)phenyl]-1-[[4-(3,5-dimethylimidazol-4-yl)phenyl]carbamoyl]propyl]-1-fluoro-cyclopropanecarboxamide] the EC50 was > 1000 nM.
Work on `CC(c1cc(-c2ccc(=O)n(C(C)C)c2)ccc1Cl)[C@H](NC(=O)OC1CC1)C(=O)Nc1ccc(-c2cncn2C)cc1` (stereo partly drawn) [Example 53, cyclopropyl N-[(1S)-2-[2-chloro-5-(1-isopropyl-6-oxo-3-pyridyl)phenyl]-1-[[4-(3-methylimidazol-4-yl)phenyl]carbamoyl]propyl] carbamate] yielded an EC50 of 100 to 1000 nM.
In the case of `CC(c1cc(-c2ccc(=O)n(C(C)C)c2)ccc1Cl)C(NC(=O)c1ccnn1C)C(=O)Nc1ccc(-c2cncn2C)cc1` (stereo not drawn) [Example 55, N-[2-[2-chloro-5-(1-isopropyl-6-oxo-3-pyridyl)phenyl]-1-[[4-(3-methylimidazol-4-yl)phenyl]carbamoyl]propyl]-2-methyl-pyrazole-3-carboxamide], the EC50 is reported as > 1000 nM.
For `CC(c1cccc(-c2ccc(=O)n(C(C)C)c2)c1)[C@H](NC(=O)c1ccnn1C)C(=O)Nc1ccc(-c2cncn2C)cc1` (stereo partly drawn) [Example 56, N-[(1S)-2-[3-(1-isopropyl-6-oxo-3-pyridyl)phenyl]-1-[[4-(3-methylimidazol-4-yl)phenyl]carbamoyl]propyl]-2-methyl-pyrazole-3-carboxamide], the EC50 was > 1000 nM.
With `Cc1n[nH]c(C)c1-c1ccc(NC(=O)[C@H](Cc2cc(-c3cccc(C(C)(C)O)c3)ccc2Cl)NC(=O)c2ccnn2C)cc1` [Example 58, N-[(1S)-1-[[2-chloro-5-[3-(1-hydroxy-1-methyl-ethyl)phenyl]phenyl]methyl]-2-[4-(3,5-dimethyl-1H-pyrazol-4-yl)anilino]-2-oxo-ethyl]-2-methyl-pyrazole-3-carboxamide] the EC50 was < 100 nM.
For `Cc1n[nH]c(C)c1-c1ccc(NC(=O)[C@H](Cc2cc(-c3cccc(C(C)(C)N)c3)ccc2Cl)NC(=O)c2ccnn2C)cc1` [Example 59, N-[(1S)-1-[[5-[3-(1-amino-1-methyl-ethyl)phenyl]-2-chloro-phenyl]methyl]-2-[4-(3,5-dimethyl-1H-pyrazol-4-yl)anilino]-2-oxo-ethyl]-2-methyl-pyrazole-3-carboxamide], the EC50 was < 100 nM.
For `Cc1n[nH]c(C)c1-c1ccc(NC(=O)[C@H](Cc2cc(-c3cccc(CN(C)C)c3)ccc2Cl)NC(=O)c2ccnn2C)cc1` [Example 60, N-[(1S)-1-[[2-chloro-5-[3-[(dimethylamino)methyl]phenyl]phenyl]methyl]-2-[4-(3,5-dimethyl-1H-pyrazol-4-yl)anilino]-2-oxo-ethyl]-2-methyl-pyrazole-3-carboxamide], the EC50 was < 100 nM.
Compound `Cc1n[nH]c(C)c1-c1ccc(NC(=O)[C@H](Cc2cc(-c3cccc(CN)c3)ccc2Cl)NC(=O)c2ccnn2C)cc1` [Example 61, N-[(1S)-1-[[5-[3-(aminomethyl)phenyl]-2-chloro-phenyl]methyl]-2-[4-(3,5-dimethyl-1H-pyrazol-4-yl)anilino]-2-oxo-ethyl]-2-methyl-pyrazole-3-carboxamide] has an EC50 of 100 to 1000 nM.
In the case of `CC(C)n1cc(-c2ccc(Cl)c(CC(NC(=O)c3ccnn3C)C(=O)Nc3ccc(-c4nncn4C)cc3)c2)ccc1=O` (stereo not drawn) [Example 62, N-[1-[[2-chloro-5-(1-isopropyl-6-oxo-3-pyridyl)phenyl]methyl]-2-[4-(4-methyl-1,2,4-triazol-3-yl)anilino]-2-oxo-ethyl]-2-methyl-pyrazole-3-carboxamide], the EC50 is reported as > 1000 nM.
For `Cc1nocc1C(=O)NC(Cc1cc(-c2ccc(=O)n(C3CC3)c2)ccc1Cl)C(=O)Nc1ccc(-c2nncn2C)cc1` (stereo not drawn) [Example 63, N-[1-[[2-chloro-5-(1-cyclopropyl-6-oxo-3-pyridyl)phenyl]methyl]-2-[4-(4-methyl-1,2,4-triazol-3-yl)anilino]-2-oxo-ethyl]-3-methyl-isoxazole-4-carboxamide], the EC50 was > 1000 nM.
In the case of `Cn1cnnc1-c1ccc(NC(=O)C(Cc2cc(-c3ccnc(CC(C)(C)O)c3)ccc2Cl)NC(=O)c2ccnn2C)cc1` (stereo not drawn) [Example 64, N-[1-[[2-chloro-5-[2-(2-hydroxy-2-methyl-propyl)-4-pyridyl]phenyl]methyl]-2-[4-(4-methyl-1,2,4-triazol-3-yl)anilino]-2-oxo-ethyl]-2-methyl-pyrazole-3-carboxamide], the EC50 is reported as > 1000 nM.
In the case of `CC(C)n1cc(-c2ccc(Cl)c(CC(NC(=O)c3ccnn3C)C(=O)Nc3ccc(-c4cnnn4C)cc3)c2)ccc1=O` (stereo not drawn) [Example 65, N-[1-[[2-chloro-5-(1-isopropyl-6-oxo-3-pyridyl)phenyl]methyl]-2-[4-(3-methyltriazol-4-yl)anilino]-2-oxo-ethyl]-2-methyl-pyrazole-3-carboxamide], the EC50 is reported as > 1000 nM.
In the case of `CC(C)n1cc(-c2ccc(Cl)c(CC(NC(=O)c3ccnn3C)C(=O)Nc3ccc(-c4nn[nH]n4)cc3)c2)ccc1=O` (stereo not drawn) [Example 66, N-[1-[[2-chloro-5-(1-isopropyl-6-oxo-3-pyridyl)phenyl]methyl]-2-oxo-2-[4-(2H-tetrazol-5-yl)anilino]ethyl]-2-methyl-pyrazole-3-carboxamide], the EC50 is reported as > 1000 nM.
Work on `Cc1nccn1-c1ccc(NC(=O)C(Cc2cc(-c3ccc(=O)n(C(C)C)c3)ccc2Cl)NC(=O)OC(C)(C)C)cc1` (stereo not drawn) [Example 67, tert-butyl N-[1-[[2-chloro-5-(1-isopropyl-6-oxo-3-pyridyl)phenyl]methyl]-2-[4-(2-methylimidazol-1-yl)anilino]-2-oxo-ethyl]carbamate] yielded an EC50 of 100 to 1000 nM.
`Cc1nccn1-c1ccc(NC(=O)C(Cc2cc(-c3ccc(=O)n(C(C)C)c3)ccc2Cl)NC(=O)c2ccnn2C)cc1` (stereo not drawn) [Example 68, N-[1-[[2-chloro-5-(1-isopropyl-6-oxo-3-pyridyl)phenyl]methyl]-2-[4-(2-methylimidazol-1-yl)anilino]-2-oxo-ethyl]-2-methyl-pyrazole-3-carboxamide] was tested, and the EC50 was > 1000 nM.
`CC(C)n1cc(-c2ccc(Cl)c(CC(NC(=O)c3ccnn3C)C(=O)Nc3ccc(-c4nncn4C)c(O)c3)c2)ccc1=O` (stereo not drawn) [Example 69, N-[1-[[2-chloro-5-(1-isopropyl-6-oxo-3-pyridyl)phenyl]methyl]-2-[3-hydroxy-4-(4-methyl-1,2,4-triazol-3-yl)anilino]-2-oxo-ethyl]-2-methyl-pyrazole-3-carboxamide] was tested, and the EC50 was 100 to 1000 nM.
